Source: patent US8455649B2, “Insecticidal substituted azinyl derivatives” (Dow AgroSciences, LLC, priority 2007, dated 2013)

Columns and labels:
[1] = test system: Corn Earworm (Helicoverpa zea); assay: Insecticidal diet-surface test for corn earworm; format: in vivo; details: 120 h, second-instar larvae on treated diet, 50 μg/cm^2 on diet surface, 5 days after treatment, 8 insects per treatment, read-out: HELIZE AVG % Mortality (50 μg/cm^2)
Method in brief: (§1)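 Second-instar larvae placed on lepidopteran diet surface-treated with 50 μL of 2000 ppm compound in 9 acetone:1 water (stated as 50 μg/cm^2), eight wells per species. Held 5 days at 25° C, 50-55% RH, 16:8 h light:dark; mortality of 8 larvae scored as percent control.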

[2] = test system: Beet Armyworm (Spodoptera exigua); assay: Insecticidal diet-surface test for beet armyworm; format: in vivo; details: 120 h, second-instar larvae on treated diet, 50 μg/cm^2 on diet surface, 5 days after treatment, 8 insects per treatment, read-out: LAPHEG AVG % Mortality (50 μg/cm^2)
Method in brief: as §1

Row | Structure (SMILES) | mortality at 50 µg/cm2 [1] [%] | mortality at 50 µg/cm2 [2] [%]
1 | CC(C)(C)COCN(C(=O)N(COCc1ccccc1)c1nc(OCC(F)(F)F)cc(OCC(F)(F)F)n1)c1ccc(C(F)(F)F)cc1 [Compound 51] | 0 | 100
2 | N#CCN(C(=O)Nc1nc(OCC(F)(F)F)cc(OCC(F)(F)F)n1)c1ccc(OC(F)(F)F)cc1 [Compound 77] | 100 | 100
3 | O=C(Nc1ccc(OC(F)(F)F)cc1)N(COCc1ccccc1)c1nc(OCC(F)(F)F)cc(OCC(F)(F)F)n1 [Compound 43] | 100 | 100
4 | O=C(Nc1ccc(C(F)(F)F)cc1)Nc1cc(C(F)(F)F)cc(OCC(F)(F)F)n1 [Compound 164] | 100 | 88
5 | O=C(Nc1ccc(C(F)(F)F)cc1)Nc1nc(OCC(F)(F)F)cc(OCC(F)(F)F)n1 [Compound 1, N′-[4,6-bis(2,2,2-trifluoroethoxy)pyrimidin-2-yl]-N-[4-(trifluoro-methyl)phenyl]urea] | 100 | 100
6 | Cc1c(OCC(F)(F)F)nc(NC(=O)Nc2ccc(Br)cc2)nc1OCC(F)(F)F [Compound 139] | 88 | 88
7 | CN(C(=O)Nc1nc(OCC(F)(F)F)cc(OCC(F)(F)F)n1)c1ccc(Cl)c(Cl)c1 [Compound 85] | 100 | 100
8 | O=C(Nc1nc(OCC(F)(F)F)cc(OCC(F)(F)F)n1)N(CCF)c1ccc(OC(F)(F)F)cc1 [Compound 95] | 100 | 100
9 | CN(C(=O)Nc1cc(C(F)(F)F)cc(OCC(F)(F)F)n1)c1ccc(Br)cc1 [Compound 167] | 100 | 50
10 | CN(C(=O)Nc1nc(OCC(F)(F)F)c(Cl)c(OCC(F)(F)F)n1)c1ccc(OC(F)(F)F)cc1 [Compound 138] | 100 | 100
11 | [2H]C([2H])([2H])N(C(=O)Nc1nc(OCC(F)(F)F)cc(OCC(F)(F)F)n1)c1ccc(C(F)(F)F)cc1 [Compound 96] | 100 | 100
12 | CN(C(=O)Nc1nc(OCC(F)(F)F)cc(OCC(F)(F)F)n1)c1ccc(C(F)(F)F)nc1 [Compound 47] | 100 | 100
13 | CN(C(=O)Nc1nc(OCC(F)(F)F)cc(OCC(F)(F)F)n1)c1ccc(C(F)(F)F)c(F)c1 [Compound 154] | 100 | 100
14 | CN(C(=O)Nc1nc(OCC(F)(F)F)nc(OCC(F)(F)F)n1)c1ccc(OC(F)(F)C(F)F)cc1 [Compound 120] | 100 | 100
15 | CN(C(=S)Nc1nc(OCC(F)(F)F)cc(OCC(F)(F)F)n1)c1ccc(Br)cc1 [Compound 132] | 100 | 100
16 | O=C(Nc1ccc(Br)cc1)Nc1nc(OCC(F)(F)F)c(Cl)c(OCC(F)(F)F)n1 [Compound 137] | 100 | 88
17 | CC(C)N(C(=O)Nc1nc(OCC(F)(F)F)cc(OCC(F)(F)F)n1)c1ccc(OC(F)(F)F)cc1 [Compound 69] | 100 | 100
18 | CN(C(=O)Nc1nc(OCC(F)(F)F)nc(OCC(F)(F)F)n1)c1ccc(C(F)(F)F)cc1 [Compound 118, N′-[4,6-bis(2,2,2-trifluoroethoxy)-1,3,5-triazin-2-yl]-N-(4-trifluoromethylphenyl)-N-methylurea] | 100 | 100
19 | CN(C(=O)Nc1nc(OCC(F)(F)F)cc(OCC(F)(F)F)n1)c1ccc(Br)nc1 [Compound 42] | 100 | 100
20 | CCOCN(C(=O)Nc1nc(OCC(F)(F)F)cc(OCC(F)(F)F)n1)c1ccc(C(F)(F)F)cc1 [Compound 34, N′-[4,6-Bis(2,2,2-trifluoroethoxy)pyrimidin-2-yl]-N-ethoxymethyl-N-(4-trifluoromethylphenyl)urea] | 100 | 100
21 | CN(C(=O)N(C)c1nc(OCC(F)(F)F)cc(OCC(F)(F)F)n1)c1ccc(C(F)(F)F)cc1 [Compound 12] | 100 | 100
22 | O=C(Nc1ccc(C(F)(F)C(F)(F)F)cc1)Nc1nc(OCC(F)(F)F)cc(OCC(F)(F)F)n1 [Compound 151] | 100 | 100
23 | COCN(C(=O)N(COCc1ccccc1)c1nc(OCC(F)(F)F)cc(OCC(F)(F)F)n1)c1ccc(C(F)(F)F)nc1 [Compound 89] | 100 | 100
24 | CN(C(=O)Nc1nc(OCC(F)(F)F)cc(OCC(F)(F)F)n1)c1ccc(I)cn1 [Compound 126] | 100 | 100
25 | COCCOCN(C(=O)N(COCc1ccccc1)c1nc(OCC(F)(F)F)cc(OCC(F)(F)F)n1)c1ccc(C(F)(F)F)cc1 [Compound 52] | 100 | 100
26 | CCOCN(C(=O)N(COCc1ccccc1)c1nc(OCC(F)(F)F)cc(OCC(F)(F)F)n1)c1ccc(Br)cc1 [Compound 67] | 100 | 100
